Measurements from patent publication US5700830A, “Use of nitric oxide-releasing agents for reducing metastasis risk” (The United States of America as represented by the …, priority 1994, dated 1997).
Where a name gives a salt, the structure may show the parent alone.

Legend:
[1] = decomposition half-life and nitric oxide release in aqueous buffer; type: physicochemical; settings: pH 7 and 25° C.; for half-life: aqueous buffer
Procedure: The resulting gel was treated with a few drops of methanol until a homogeneous solution was obtained. The solution was transferred into a micro-Parr bottle and bubbled with nitrogen for 5 min, followed by exposure to 40 psi of NO for 72 h.
The system was degassed and charged with 40 psi of nitric oxide.
The system was evacuated, charged with 40 psi of nitric oxide and kept at 25° C. for 48 h. The white crystalline product was collected by filtration and washed with cold methanol as well as with copious amounts of ether. […] This measurement was based on the loss of the 252-nm chromophore in the ultraviolet spectrum.

[2] = cited from earlier work
[3] = test system: RPMI 1846 melanotic melanoma cells adhering to rat mesenteric postcapillary venules; assay: adhesion of melanoma tumor cells to isolated postcapillary venules; type: cell-based, Syrian hamster (tumor cells); Sprague-Dawley rat (vessels); settings: 1 mM DETA/NO for 30 min, FIG. 1
Procedure: RPMI 1846, a melanotic melanoma of a Syrian hamster, was obtained from the American Type Culture Collection, Rockville, Md., and grown in McCoy's 5A medium (GIBCO, Grand Island, N.Y.) supplemented with 20% fetal bovine serum (GIBCO, Grand Island, N.Y.) at 37° C. in a humidified 5% CO2 atmosphere. […]
A segment of bowel and attached mesentery was excised and placed in a dissecting chamber containing ice-cold, pH 7.4 PSS (same as APSS but without added serum). […] A television camera mounted on the microscope was used to project the image onto a television monitor and the images were recorded using a videocassette recorder. […]
After a 30-min stabilization period, the vessel was perfused with tumor cell suspension. […] The number of cells sitting on the microvessel was observed and recorded. […] Five minutes later, the number of tumor cells remaining adherent to the vessel wall was counted and recorded. The percentage of adherent cells was calculated by dividing the number of tumor cells remaining adherent to the vessel wall after flow was resumed for 5 minutes by the total number of cells setting on the vessel wall when flow was interrupted. […]

DNA synthesis = settings: cited from earlier work
[4] = via exhaustion of the relevant enzyme/cofactor system; cited from earlier work

For `CCOC(=O)N1CCN([N+]([O-])=NO)CC1` [1-(4-carbethoxypiperazin-1-yl)-1-oxo-2-hydroxydiazene, sodium salt], the half-life [1] was 5 min.
In the case of Nitric oxide, the “solubility in aqueous media” value [2] is listed as “limited solubility in aqueous media”.
With `NCCN(CCN)[N+]([O-])=NO` [DETA/NO] the “effect on LPS-enhanced tumor cell adhesion to postcapillary venules” value ([3]; LPS-treated venules) was “completely blocked the enhancing effect of LPS on tumor cell adhesion” and the “effect on tumor cell adhesion to untreated venules” value ([3]; untreated venules, P<0.05) was “decreased tumor cell adhesion to untreated venules”.
For `CC(=O)N[C@H](C(=O)O)C(C)(C)SN=O` (racemic) [S-nitroso-N-acetylpenicillamine], the “inhibition of DNA synthesis” value (DNA synthesis) is listed as “effective at inhibiting DNA synthesis”.
For `CSCC[C@H](NC(C)=O)C(=O)N1CCN([N+]([O-])=NO)CC1` [Example V, 1-[4-(N-acetyl-L-methionyl)piperazin-1-yl]-1-oxo-2-hydroxydiazene, sodium salt], the half-life [1] was 6.9 min and the “NO produced per mole of test agent” value [1] was 1.72 moles of NO per mole of test agent.
For `O=[N+]([O-])OCC(CO[N+](=O)[O-])O[N+](=O)[O-]` [glyceryl trinitrate], the tolerance [4] is given as “tolerance to glyceryl trinitrate can develop”.
